Experimental data: ChEMBL document CHEMBL1201862, “PubChem BioAssay data set” (2004)
Activity calls are given as the source filed them.

Columns and labels:
[1] = NIH3T3 cell viability loss – ATP luminescence, mouse fibroblasts, counter-screen, dose response (AID 2010); type: functional, cell-based;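 further: cells exposed to compound for about 90 hours before reading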
Mucolipin-3 = Mucolipin-3 (Homo sapiens, UniProt Q8TDD5); assay: Dose response cell-based high-throughput screening assay for agonists of the transient receptor potential channel ML3 (TRPML3). [Related pubchem assays: 1526, 1424, 1448 ]; type: functional
Mucolipin-3, sequence (Q8TDD5 whole entry, the tested form may be a part): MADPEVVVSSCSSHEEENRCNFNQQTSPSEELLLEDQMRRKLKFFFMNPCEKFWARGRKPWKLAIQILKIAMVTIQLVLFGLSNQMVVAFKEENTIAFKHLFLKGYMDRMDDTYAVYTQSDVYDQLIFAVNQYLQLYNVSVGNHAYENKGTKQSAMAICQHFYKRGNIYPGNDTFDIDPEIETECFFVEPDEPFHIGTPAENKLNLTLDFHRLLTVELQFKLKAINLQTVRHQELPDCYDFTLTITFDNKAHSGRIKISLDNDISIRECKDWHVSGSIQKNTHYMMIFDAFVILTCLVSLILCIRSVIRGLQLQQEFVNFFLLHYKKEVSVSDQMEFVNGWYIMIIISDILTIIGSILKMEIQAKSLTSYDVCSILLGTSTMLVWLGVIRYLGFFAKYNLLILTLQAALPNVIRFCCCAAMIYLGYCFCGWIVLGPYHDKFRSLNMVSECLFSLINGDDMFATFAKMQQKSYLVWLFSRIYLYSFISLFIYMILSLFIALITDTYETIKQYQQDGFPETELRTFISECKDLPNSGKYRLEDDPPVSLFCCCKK

CHO = CHO cell viability loss, potency – luminescence, cytotoxicity control for TLR9-MyD88 binding inhibitor project, dose response (AID 588339); type: functional, cell-based, hamster; details: Cricetulus griseus;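 further: CHO cells stably coexpressing TLR9 and MyD88 fusions from primary screen; compound exposure lasted 48 hours before viability readout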
[2] = Fluorescence-based cell-based high throughput dose response assay for inhibitors of the interaction of nucleotide-binding oligomerization domain containing 2 (NOD2) and the receptor-interacting serine-threonine kinase 2 (RIPK2).; type: functional, Homo sapiens; details: Homo sapiens
Paired box protein Pax-8 = Paired box protein Pax-8 (Homo sapiens, UniProt Q06710); assay: PAX8 transcriptional activity inhibition in RMG-I – RMG-I cells, luciferase, cherry-pick, dose response (AID 687027); type: functional, cell-based;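 further: luciferase reporter driven by Pax8 target thyroperoxidase promoter measured by SteadyGlo luminescence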
Paired box protein Pax-8, sequence (Q06710 whole entry): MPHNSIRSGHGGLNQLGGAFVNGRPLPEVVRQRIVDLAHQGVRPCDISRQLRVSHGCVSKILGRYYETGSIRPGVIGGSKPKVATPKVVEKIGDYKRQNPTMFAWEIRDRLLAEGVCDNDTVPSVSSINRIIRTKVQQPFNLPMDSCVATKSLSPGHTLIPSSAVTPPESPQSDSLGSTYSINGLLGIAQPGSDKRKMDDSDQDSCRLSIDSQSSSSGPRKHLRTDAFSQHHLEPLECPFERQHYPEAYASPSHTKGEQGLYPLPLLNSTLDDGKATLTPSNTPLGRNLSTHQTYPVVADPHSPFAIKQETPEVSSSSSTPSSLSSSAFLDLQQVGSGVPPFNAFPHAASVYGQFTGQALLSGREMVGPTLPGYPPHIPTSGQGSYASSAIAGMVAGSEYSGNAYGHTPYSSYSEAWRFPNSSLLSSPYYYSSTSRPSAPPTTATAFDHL

Ion channel NompC = Ion channel NompC (Danio rerio, UniProt Q7T1G6); assay: Fluorescence counterscreen assay for TRPML3 agonists: dose response cell-based high-throughput screening assay to identify agonists of the transient receptor potential channel N1 (TRPN1). [Related pubchem assays: 1526, 1424, 1448 ]; type: functional
Ion channel NompC, sequence (Q7T1G6 whole entry): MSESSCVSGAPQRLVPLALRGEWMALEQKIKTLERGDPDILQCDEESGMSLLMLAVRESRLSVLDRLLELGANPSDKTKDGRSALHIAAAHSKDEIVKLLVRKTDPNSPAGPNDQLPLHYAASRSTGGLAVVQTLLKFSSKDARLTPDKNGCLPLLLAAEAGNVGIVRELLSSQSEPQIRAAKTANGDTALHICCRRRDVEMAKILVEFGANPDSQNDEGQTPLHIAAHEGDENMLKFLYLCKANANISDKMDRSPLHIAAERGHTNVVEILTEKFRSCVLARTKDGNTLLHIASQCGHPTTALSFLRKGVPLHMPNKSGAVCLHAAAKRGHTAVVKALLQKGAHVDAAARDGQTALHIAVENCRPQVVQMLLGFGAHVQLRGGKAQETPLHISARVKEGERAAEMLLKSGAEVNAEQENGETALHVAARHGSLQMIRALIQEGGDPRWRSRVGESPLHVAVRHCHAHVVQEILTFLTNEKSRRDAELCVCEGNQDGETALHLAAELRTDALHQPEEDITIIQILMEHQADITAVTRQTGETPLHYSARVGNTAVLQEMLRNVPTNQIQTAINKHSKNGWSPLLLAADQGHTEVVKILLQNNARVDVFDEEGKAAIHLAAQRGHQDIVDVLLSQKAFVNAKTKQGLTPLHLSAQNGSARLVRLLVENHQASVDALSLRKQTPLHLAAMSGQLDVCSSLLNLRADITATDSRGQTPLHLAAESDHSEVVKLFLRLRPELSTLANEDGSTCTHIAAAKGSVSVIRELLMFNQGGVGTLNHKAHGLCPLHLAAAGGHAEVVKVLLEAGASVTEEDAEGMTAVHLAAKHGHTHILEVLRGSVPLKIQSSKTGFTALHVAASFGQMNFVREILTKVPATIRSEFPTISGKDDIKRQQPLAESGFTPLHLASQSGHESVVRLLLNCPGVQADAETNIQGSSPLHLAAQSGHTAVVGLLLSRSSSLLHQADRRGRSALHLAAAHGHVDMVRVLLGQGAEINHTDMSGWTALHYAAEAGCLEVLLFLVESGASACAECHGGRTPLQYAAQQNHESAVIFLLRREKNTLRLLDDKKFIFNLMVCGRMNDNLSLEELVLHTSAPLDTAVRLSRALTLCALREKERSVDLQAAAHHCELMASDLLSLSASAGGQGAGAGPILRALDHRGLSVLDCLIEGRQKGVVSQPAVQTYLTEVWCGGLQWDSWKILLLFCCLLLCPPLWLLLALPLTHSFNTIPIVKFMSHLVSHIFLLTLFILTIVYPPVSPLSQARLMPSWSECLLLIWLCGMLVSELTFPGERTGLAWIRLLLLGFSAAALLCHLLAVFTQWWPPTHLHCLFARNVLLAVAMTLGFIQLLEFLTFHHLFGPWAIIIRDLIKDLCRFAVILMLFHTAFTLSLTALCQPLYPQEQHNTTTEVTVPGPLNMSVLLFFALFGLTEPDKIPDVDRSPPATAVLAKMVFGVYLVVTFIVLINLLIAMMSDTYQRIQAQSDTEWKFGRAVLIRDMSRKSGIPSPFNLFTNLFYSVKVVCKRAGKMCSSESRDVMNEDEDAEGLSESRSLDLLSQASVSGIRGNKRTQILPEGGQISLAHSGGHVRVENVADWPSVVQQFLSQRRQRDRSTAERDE

[3] = Trypanosoma cruzi growth suppression in host cells – NIH3T3 host cells, beta-gal luminescence, confirmation (AID 2044); type: functional, cell-based;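 further: intracellular parasites grown in NIH/3T3 mouse fibroblasts as host cells; luminescent beta-galactosidase reporter signal from transgenic T. cruzi replicating inside host cells; inhibitors lower the luminescence signal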
[4] = biological target: Beta-2 adrenergic receptor (Homo sapiens, UniProt P07550); assay: ADRB2 activation measured by internalization – cell-based, FAP fluorogen, flow cytometry, cherry pick 1, dose response (AID 588763); type: functional
Beta-2 adrenergic receptor, sequence (P07550 whole entry): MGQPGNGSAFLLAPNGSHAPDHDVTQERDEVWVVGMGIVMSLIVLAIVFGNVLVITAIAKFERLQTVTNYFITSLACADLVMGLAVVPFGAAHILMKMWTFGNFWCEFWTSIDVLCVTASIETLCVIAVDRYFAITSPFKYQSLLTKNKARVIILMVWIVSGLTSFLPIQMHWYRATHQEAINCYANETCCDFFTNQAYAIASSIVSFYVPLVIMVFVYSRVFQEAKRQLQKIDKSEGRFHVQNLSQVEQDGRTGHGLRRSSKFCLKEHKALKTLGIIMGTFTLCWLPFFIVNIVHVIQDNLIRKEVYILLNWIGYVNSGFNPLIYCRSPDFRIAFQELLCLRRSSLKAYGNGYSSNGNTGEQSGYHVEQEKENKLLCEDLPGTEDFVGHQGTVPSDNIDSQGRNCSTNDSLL

For O=c1c(Cl)c(Cl)cnn1Cc1nnc(-c2ccccc2Br)o1, the EC50 [1] was 2.51 µM (active), the EC50 (Mucolipin-3) was 3.15 µM (active) and the IC50 (CHO) was 1.81 µM (active). The IC50 [2] was 7.65 µM (active), the AC50 (Paired box protein Pax-8) was 7.63 µM (active) and the EC50 (Ion channel NompC) was 11.3 µM (not active). For the same molecule, the EC50 [3] was 2.03 µM (active).

In the case of CN(Cc1cccs1)c1nc(-c2cccnc2)nc2ccccc12, the EC50 [4] is reported as 1.26 µM (active).
